Literature values, collected in US20230218627A1, “PRESERVATIVE FREE PHARMACEUTICAL COMPOSITION FOR OPHTHALMIC ADMINISTRATION COMPRISING BRIMONIDINE” (PHARMATHEN S.A., priority 2020, published 2023).

Tests used:
[1] = system: alpha-2 adrenergic receptor

Row | solubility in ethanol (ethanol) | solubility in water (water) | selectivity for the alpha-2 adrenergic receptor than the alpha-1 adrenergic receptor [1] | SMILES
1 | soluble | soluble | – | CC(C)(C)NC[C@H](O)COc1nsnc1N1CCOCC1.O=C(O)/C=C\C(=O)O [Timolol maleate, (2S)-1-[(1,1-Dimethylethyl)amino]-3-[[4-(morpholin-4-yl)-1,2,5-thiadiazol-3-yl]oxy]propan-2-ol (Z)-butenedioate]
2 | – | – | 1000 fold | Brc1c(NC2=NCCN2)ccc2nccnc12 [Brimonidine]
